ChEMBL document CHEMBL5696442, “Discovery of type II inhibitors of TGFβ-activated kinase 1 (TAK1) and mitogen-activated protein kinase kinase kinase kinase 2 (MAP4K2)” (J Med Chem, 2015)
The source made the active and inactive calls. The rule behind the calls is not given here.

How the values were obtained:
[1] = target: Serine-protein kinase ATM (Homo sapiens) (UniProt Q13315); assay: Inhibition of ATM ATP labeling site in human Huh-7 cell lysate at 1 uM by KiNativ Profiling analysis relative to control; format: subcellular
[2] = target: Ribosomal protein S6 kinase alpha-3 (Homo sapiens) (UniProt P51812); assay: Inhibition of RSK2 domain2 Lys2 labeling site DLKPSNILYVDESGNPESIR in human Huh-7 cell lysate at 1 uM by KiNativ Profiling analysis relative to control; format: subcellular
[3] = target: Serine/threonine-protein kinase 4 (Homo sapiens) (UniProt Q13043); assay: Inhibition of MST1 Lys1 labeling site harbouring ETGQIVAIKQVPVESDLQEIIK in human Huh-7 cell lysate at 1 uM by KiNativ Profiling analysis relative to control
Serine/threonine-protein kinase 4 (Homo sapiens), sequence (Q13043 whole entry, looked up, canonical isoform): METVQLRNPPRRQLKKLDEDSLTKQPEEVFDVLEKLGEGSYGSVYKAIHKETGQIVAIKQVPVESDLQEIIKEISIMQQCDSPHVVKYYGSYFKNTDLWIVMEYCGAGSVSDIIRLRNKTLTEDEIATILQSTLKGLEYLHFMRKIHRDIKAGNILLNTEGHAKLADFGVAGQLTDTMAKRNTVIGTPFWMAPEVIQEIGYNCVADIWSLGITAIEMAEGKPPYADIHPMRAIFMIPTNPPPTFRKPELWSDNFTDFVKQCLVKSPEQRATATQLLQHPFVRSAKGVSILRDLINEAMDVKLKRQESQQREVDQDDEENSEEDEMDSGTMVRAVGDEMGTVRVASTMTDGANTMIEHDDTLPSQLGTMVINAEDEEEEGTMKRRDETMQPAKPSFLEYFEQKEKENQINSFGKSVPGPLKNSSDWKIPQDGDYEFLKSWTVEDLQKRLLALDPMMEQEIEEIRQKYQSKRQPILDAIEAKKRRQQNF

[4] = target: Casein kinase I isoform alpha (Homo sapiens) (UniProt P48729); assay: Inhibition of CK1alpha Lys2 labeling site in human Huh-7 cell lysate at 1 uM by KiNativ Profiling analysis relative to control; format: subcellular
Casein kinase I isoform alpha (Homo sapiens), sequence (P48729 2-337 limits assumed): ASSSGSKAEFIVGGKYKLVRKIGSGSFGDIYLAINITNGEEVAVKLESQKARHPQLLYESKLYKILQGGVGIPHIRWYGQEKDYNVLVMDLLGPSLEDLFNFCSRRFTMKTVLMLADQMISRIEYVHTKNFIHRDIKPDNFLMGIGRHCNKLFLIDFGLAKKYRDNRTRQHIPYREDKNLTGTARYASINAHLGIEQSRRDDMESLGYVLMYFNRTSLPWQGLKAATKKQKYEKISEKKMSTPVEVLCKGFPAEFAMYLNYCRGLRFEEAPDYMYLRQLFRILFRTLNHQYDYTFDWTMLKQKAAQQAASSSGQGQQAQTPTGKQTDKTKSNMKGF

[5] = target: Myosin light chain kinase, smooth muscle (Homo sapiens) (UniProt Q15746); assay: Inhibition of smMLCK Lys2 labeling site in human Huh-7 cell lysate at 1 uM by KiNativ Profiling analysis relative to control; format: subcellular
[6] = target: Protein kinase C beta type (Homo sapiens) (UniProt P05771); assay: Inhibition of PKCb Lys2 labeling site in human Huh-7 cells at 1 uM by KiNativ Profiling analysis relative to control; format: cell-based
[7] = test system: Proto-oncogene tyrosine-protein kinase receptor Ret (Homo sapiens), P07949 [M918T]; assay: Inhibition of RET M918T mutant (unknown origin) at 10 uM by Ambit Kinomescan binding assay relative to control; values are per cent of control
Proto-oncogene tyrosine-protein kinase receptor Ret (Homo sapiens), P07949 [M918T], sequence (P07949 whole entry M918T): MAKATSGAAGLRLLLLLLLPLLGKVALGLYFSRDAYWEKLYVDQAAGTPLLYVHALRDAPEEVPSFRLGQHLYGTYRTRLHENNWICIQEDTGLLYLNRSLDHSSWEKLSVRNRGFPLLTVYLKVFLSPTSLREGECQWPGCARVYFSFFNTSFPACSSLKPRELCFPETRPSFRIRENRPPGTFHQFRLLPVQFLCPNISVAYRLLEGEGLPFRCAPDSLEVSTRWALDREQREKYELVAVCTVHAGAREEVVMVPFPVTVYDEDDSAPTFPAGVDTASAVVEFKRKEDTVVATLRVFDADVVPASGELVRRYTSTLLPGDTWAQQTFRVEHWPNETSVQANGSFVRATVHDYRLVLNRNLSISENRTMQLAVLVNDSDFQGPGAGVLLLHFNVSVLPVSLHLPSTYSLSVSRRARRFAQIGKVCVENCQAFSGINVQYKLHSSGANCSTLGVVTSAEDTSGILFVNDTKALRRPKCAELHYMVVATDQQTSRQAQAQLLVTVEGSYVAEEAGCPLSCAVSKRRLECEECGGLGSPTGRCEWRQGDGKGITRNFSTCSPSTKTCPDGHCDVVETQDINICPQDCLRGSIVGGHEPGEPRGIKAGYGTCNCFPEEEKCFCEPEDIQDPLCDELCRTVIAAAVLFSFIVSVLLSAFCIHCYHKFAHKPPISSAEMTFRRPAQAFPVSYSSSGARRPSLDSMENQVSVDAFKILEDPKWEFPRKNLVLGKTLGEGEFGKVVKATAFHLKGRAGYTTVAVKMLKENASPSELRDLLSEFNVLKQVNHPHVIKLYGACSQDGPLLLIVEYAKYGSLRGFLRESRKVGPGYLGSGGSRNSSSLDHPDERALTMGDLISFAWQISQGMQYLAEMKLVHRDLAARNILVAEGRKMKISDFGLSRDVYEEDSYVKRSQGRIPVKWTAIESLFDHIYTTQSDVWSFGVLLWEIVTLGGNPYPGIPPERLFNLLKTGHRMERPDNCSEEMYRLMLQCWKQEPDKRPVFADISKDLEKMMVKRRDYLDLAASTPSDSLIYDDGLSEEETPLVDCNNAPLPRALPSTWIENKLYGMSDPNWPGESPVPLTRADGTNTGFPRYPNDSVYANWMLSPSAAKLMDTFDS

[8] = target: T1, Phosphatidylinositol 5-phosphate 4-kinase type-2 alpha (Homo sapiens) (UniProt P48426); assay: Inhibition of PIP5K2A C2 labeling site in human Huh-7 cells at 10 uM by KiNativ Profiling analysis relative to control; format: cell-based
T1 sequence (whole entry): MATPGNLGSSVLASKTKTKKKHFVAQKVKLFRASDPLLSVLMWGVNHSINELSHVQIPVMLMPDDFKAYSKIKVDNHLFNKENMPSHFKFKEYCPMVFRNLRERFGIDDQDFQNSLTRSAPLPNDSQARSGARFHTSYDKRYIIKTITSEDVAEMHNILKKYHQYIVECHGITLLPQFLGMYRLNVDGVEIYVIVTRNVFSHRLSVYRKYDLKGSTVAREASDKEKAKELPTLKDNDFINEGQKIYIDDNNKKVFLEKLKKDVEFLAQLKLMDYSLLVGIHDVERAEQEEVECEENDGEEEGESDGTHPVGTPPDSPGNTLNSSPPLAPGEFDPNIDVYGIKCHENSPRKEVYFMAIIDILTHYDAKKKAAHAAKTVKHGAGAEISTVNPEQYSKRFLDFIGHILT

[9] = target: Wee1-like protein kinase (Homo sapiens) (UniProt P30291); assay: Inhibition of Wee1 K2 labeling site in human Huh-7 cells at 1 uM by KiNativ Profiling analysis relative to control; format: cell-based
[10] = target: Ephrin type-A receptor 1 (Homo sapiens) (UniProt P21709); assay: Inhibition of EPHA1 (unknown origin) at 10 uM by Ambit Kinomescan binding assay
[11] = target: AMPK alpha1/alpha2 (Homo sapiens) (UniProt P54646+Q13131); assay: Inhibition of AMPK alpha 1/2 K1 labeling site in human Huh-7 cells at 1 uM by KiNativ Profiling analysis relative to control; format: cell-based
[12] = target: Casein kinase I isoform alpha (Homo sapiens) (UniProt P48729); assay: Inhibition of CK1 alpha K2 labeling site in human Huh-7 cells at 1 uM by KiNativ Profiling analysis relative to control; format: cell-based
[13] = target: Mitogen-activated protein kinase kinase kinase kinase 3 (Homo sapiens) (UniProt Q8IVH8); assay: Inhibition of MAP4K3 (unknown origin) at 10 uM by Ambit Kinomescan binding assay relative to control
[14] = target: Proto-oncogene tyrosine-protein kinase ROS (Homo sapiens) (UniProt P08922); assay: Inhibition of ROS1 (unknown origin) at 1 uM by Ambit Kinomescan binding assay relative to control
Proto-oncogene tyrosine-protein kinase ROS (Homo sapiens), sequence (P08922 whole entry): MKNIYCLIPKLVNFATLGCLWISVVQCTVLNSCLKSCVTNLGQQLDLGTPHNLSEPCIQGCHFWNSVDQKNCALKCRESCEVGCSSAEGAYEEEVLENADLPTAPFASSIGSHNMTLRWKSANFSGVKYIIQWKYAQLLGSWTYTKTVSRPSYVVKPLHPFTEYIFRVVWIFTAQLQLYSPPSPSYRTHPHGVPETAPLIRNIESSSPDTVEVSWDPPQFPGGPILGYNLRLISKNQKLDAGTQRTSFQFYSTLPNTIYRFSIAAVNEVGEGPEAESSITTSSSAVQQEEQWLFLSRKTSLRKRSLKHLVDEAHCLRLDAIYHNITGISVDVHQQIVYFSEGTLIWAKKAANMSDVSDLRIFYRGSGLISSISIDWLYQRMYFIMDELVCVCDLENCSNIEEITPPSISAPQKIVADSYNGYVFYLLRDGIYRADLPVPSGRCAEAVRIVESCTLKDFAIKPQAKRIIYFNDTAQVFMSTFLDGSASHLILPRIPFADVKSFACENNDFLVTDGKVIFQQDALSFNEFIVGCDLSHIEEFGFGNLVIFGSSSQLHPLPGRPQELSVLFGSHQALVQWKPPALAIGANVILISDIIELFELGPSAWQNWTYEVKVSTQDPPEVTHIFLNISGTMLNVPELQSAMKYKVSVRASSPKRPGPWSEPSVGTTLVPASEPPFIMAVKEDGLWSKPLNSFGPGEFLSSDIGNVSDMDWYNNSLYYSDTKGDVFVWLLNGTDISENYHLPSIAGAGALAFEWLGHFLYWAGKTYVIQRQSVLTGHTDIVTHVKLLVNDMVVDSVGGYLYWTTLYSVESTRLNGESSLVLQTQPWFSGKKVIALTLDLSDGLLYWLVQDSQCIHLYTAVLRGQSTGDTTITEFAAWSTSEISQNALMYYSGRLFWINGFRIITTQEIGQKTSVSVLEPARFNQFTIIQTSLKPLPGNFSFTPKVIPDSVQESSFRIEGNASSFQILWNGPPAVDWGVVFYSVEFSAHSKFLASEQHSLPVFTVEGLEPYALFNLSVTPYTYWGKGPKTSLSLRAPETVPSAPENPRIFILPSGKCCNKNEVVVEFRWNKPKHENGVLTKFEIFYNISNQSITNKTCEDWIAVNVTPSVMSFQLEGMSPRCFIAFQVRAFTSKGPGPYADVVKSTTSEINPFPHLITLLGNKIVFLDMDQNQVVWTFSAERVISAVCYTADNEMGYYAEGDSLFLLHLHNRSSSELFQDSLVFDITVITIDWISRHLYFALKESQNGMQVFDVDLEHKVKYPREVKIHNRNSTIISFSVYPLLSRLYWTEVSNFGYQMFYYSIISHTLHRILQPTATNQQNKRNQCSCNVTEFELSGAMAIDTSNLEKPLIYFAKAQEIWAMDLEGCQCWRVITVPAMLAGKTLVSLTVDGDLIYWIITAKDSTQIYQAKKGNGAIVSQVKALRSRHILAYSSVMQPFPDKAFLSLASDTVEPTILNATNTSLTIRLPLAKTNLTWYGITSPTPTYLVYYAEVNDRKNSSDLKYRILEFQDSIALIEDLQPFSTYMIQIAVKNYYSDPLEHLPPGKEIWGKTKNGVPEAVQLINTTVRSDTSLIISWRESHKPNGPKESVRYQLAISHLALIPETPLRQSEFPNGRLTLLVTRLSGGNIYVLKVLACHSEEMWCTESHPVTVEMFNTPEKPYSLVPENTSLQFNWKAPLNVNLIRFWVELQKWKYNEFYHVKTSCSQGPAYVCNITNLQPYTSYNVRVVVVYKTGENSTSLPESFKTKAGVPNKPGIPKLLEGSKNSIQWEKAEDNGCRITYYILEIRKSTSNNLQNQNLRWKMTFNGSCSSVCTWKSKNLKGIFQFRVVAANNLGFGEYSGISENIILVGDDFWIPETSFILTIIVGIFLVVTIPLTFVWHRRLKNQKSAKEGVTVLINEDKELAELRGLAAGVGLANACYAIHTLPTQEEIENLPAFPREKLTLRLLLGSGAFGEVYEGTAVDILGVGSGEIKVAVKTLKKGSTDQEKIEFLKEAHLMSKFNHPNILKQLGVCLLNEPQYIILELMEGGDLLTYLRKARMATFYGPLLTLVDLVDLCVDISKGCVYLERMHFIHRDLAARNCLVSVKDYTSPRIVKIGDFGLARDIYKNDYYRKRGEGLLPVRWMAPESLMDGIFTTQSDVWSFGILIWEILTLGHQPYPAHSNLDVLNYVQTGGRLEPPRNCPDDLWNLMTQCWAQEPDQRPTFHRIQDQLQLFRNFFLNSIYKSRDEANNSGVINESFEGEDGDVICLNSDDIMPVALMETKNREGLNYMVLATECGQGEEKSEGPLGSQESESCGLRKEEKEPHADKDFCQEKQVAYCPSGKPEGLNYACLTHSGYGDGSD

[15] = test system: Receptor-type tyrosine-protein kinase FLT3 (Homo sapiens), P36888 [K663Q]; assay: Inhibition of FLT3 K663Q mutant (unknown origin) at 1 uM by Ambit Kinomescan binding assay relative to control; values are per cent of control
[16] = target: Muscle, skeletal receptor tyrosine-protein kinase (Homo sapiens) (UniProt O15146); assay: Inhibition of MUSK (unknown origin) at 1 uM by Ambit Kinomescan binding assay relative to control; values are per cent of control
[17] = target: Putative phosphatidylinositol 4-kinase alpha-like protein P2 (Homo sapiens) (UniProt A4QPH2); assay: Inhibition of PI4KAP2 ATP labeling site in human A-375 cells at 0.5 uM by KiNativ Profiling analysis relative to control; format: cell-based
[18] = test system: Epidermal growth factor receptor (Homo sapiens), P00533 [UNDEFINED MUTATION]; assay: Inhibition of EGFR L747-E749del/A750P mutant (unknown origin) at 1 uM by Ambit Kinomescan binding assay relative to control
[19] = target: Serine/threonine-protein kinase 38-like (Homo sapiens) (UniProt Q9Y2H1); assay: Inhibition of NDR2 Lys1 labeling site harbouring KDTGHIYAMKILR in human A-375 cells at 0.05 uM by KiNativ Profiling analysis relative to control; format: cell-based
Serine/threonine-protein kinase 38-like (Homo sapiens), sequence (Q9Y2H1 2-464 limits assumed): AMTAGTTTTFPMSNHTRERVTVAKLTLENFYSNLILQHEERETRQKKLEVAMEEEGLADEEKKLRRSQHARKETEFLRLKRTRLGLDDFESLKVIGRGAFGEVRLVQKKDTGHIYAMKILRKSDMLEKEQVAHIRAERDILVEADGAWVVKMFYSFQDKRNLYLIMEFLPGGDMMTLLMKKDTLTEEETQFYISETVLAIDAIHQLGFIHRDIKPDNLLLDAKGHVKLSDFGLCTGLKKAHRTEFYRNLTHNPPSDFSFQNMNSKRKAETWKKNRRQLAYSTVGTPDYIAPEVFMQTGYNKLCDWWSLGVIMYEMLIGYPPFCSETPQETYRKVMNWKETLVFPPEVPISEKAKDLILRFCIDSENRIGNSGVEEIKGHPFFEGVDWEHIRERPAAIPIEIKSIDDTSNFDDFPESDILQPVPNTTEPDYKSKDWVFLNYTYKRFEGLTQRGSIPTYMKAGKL

[20] = target: Serine/threonine-protein kinase 38-like (Homo sapiens) (UniProt Q9Y2H1); assay: Inhibition of NDR2 (unknown origin) at 1 uM by Ambit Kinomescan binding assay relative to control; values are per cent of control
[21] = target: T2, EKC/KEOPS complex subunit TP53RK (Homo sapiens) (UniProt Q96S44); assay: Inhibition of PRPK ATP Loop labeling site in human A-375 cells at 0.05 uM by KiNativ Profiling analysis relative to control; format: cell-based
T2 sequence (whole entry): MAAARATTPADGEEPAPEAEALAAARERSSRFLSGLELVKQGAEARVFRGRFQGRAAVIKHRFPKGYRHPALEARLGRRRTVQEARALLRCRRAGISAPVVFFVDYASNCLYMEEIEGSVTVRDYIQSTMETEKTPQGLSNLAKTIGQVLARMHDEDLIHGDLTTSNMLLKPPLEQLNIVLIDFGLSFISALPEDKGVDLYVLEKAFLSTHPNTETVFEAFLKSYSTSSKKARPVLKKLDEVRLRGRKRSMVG

SMILES: CNc1cc(Oc2cc(C(=O)Nc3cc(N4CCN(C)CC4)cc(C(F)(F)F)c3)ccc2C)ncn1
- inhibition [1]: 4.8%
- inhibition [2]: 0.2%
- inhibition [3]: -1.3%
- inhibition [4]: 3.8%
- inhibition [5]: -5.1%
- inhibition [6]: 64.8%

SMILES: CCN1CCN(Cc2ccc(NC(=O)c3ccc(C)c(Oc4ccnc5[nH]ccc45)c3)cc2C(F)(F)F)CC1
- residual activity [7]: 0%
- inhibition [8]: 1.3%
- inhibition [9]: 1.5%
- inhibition [10]: inactive
- inhibition [11]: 29.8%
- inhibition [12]: 2.9%
- inhibition [13]: 18%

SMILES: CCN1CCN(Cc2ccc(NC(=O)c3ccc(C)c(/C=C/c4cnc5[nH]ccc5c4OC)c3)cc2C(F)(F)F)CC1
- inhibition [14]: 100%
- residual activity [15]: 0.15%
- residual activity [16]: 2%
- inhibition [17]: -8%
- inhibition [18]: 3%
- inhibition [19]: 6%
- residual activity [20]: 79%
- inhibition [21]: -1.5%
